In one data set the target is NADH-fumarate reductase (Ascaris suum, UniProt P24875). Description: NADH-fumarate reductase inhibitory activity, Ascaris suum mitochondrial fraction, NADH absorption at 340 nm. Type of data set: biochemical. Here is the method:
NADH-fumarate reductase inhibitory activity of FT-0554A substance of the present invention is explained as follows.
Muscles of Ascaris suum were homogenized in 120 mM sodium phosphate solution (pH 7.0) and centrifuged at 3000×g for 10 minutes to collect the supernatant solution. The supernatant was further centrifuged at 10000×g for 20 minutes to collect the precipitate. The precipitate was suspended in 120 mM sodium phosphate solution (pH 7.0) to obtain mitochondorial fraction.
After 10 μl of test sample dissolved in 50% dimethyl sulfoxide solution was added into 96 wells microplate, 80 μl of 120 mM sodium phosphate solution (pH 7.0) containing 0.35 mM NADH, 7.2 mM disodium fumarate and 18 mg/ml bovine serum albumin was added thereto, and pre-incubated in the microplate reader ELX808 (Bio-Teck Industries Co.) at 37° C. for 5 minutes. Mithochondrial fraction of Ascaris suum 10 μl (protein content 0.3 mg) was added therein and incubated at 37° C. for 10 minutes. Absorption of NADH at 340 nm was measured every 15 seconds.
As a result of quantitative measurement of NADH-fumarate reductase activity shown by decrease in the slope of absorbancy at 340 nm, 50% inhibition of NADH-fumarate reductase activity were obtained at 0.4 μM of FT-0554A substance. Consequently, FT-0554A substance can be expected to use as drug for treatment or prevention of helminthiasis.

The next data set in a line: Solubility in solvent. Type of data set: physicochemical.

“Also recorded” adds a separate entry of the source.

Turning to `CCC(C)/C=C/C=C(\C)CC(C)/C=C/C=C/C1OC(=O)C(O)C2OC12C` (stereo not shown) [FT-0554 substance, reference compound], the “NADH-fumarate reductase inhibitory activity (in words)” value at NADH-fumarate reductase is “had NADH-fumarate reductase inhibitory activity”.
For the compound `CCC(C)/C=C/C=C(\C)CC(C)/C=C/C=C/C(O)C1(C)C=C(O)C(=O)O1` (stereo not shown) [FT-0554A substance], the “NADH-fumarate reductase inhibitory activity (in words)” value at NADH-fumarate reductase is on record as “equivalent level of inhibitory activity”. For the same compound, the Solubility in solvent entry is recorded as “soluble” in “Solubility in solvent” (chloroform and ethyl acetate); “insoluble; also recorded: hardly soluble” in “Solubility in solvent” (water and n-hexane).

The values are drawn from US6835747B1, “Ft-0554a substances and process for the preparation thereof” (The Kitasato Institute, priority 2003, dated 2004).
